From ChEMBL document CHEMBL3596089, “Synthesis and characterization of novel oxazines and demonstration that they specifically target cyclooxygenase 2” (Bioorg Med Chem Lett, 2015) come the findings set out here.

In general, IC50 refers to the midpoint of a concentration-inhibition curve. Higher therefore signals lower potency.

Assay [1] addresses T1, Prostaglandin G/H synthase 2 (Homo sapiens, UniProt P35354).
T1 sequence (P35354 whole entry): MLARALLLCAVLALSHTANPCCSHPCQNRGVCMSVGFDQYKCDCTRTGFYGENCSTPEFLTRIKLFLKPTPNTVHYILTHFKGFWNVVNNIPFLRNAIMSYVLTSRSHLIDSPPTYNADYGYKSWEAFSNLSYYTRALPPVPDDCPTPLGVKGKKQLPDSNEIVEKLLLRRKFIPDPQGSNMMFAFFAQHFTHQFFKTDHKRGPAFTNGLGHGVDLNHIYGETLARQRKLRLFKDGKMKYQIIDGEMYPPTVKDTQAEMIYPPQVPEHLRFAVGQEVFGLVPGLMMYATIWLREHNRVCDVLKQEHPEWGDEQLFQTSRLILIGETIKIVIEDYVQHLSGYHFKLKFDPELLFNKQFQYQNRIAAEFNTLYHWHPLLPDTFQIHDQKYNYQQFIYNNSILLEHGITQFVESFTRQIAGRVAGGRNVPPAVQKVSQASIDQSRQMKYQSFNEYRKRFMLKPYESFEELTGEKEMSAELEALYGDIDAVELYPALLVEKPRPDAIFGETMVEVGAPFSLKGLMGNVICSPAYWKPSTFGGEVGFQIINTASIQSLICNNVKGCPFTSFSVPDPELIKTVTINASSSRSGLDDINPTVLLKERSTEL
The assay is described as follows: Inhibition of COX2 (unknown origin).

The target in assay [2] is Prostaglandin G/H synthase 1 (Homo sapiens, UniProt P23219). In words: Inhibition of COX1 (unknown origin).

The structures appear in SMILES notation.

Sequence of Prostaglandin G/H synthase 1 (P23219 whole entry): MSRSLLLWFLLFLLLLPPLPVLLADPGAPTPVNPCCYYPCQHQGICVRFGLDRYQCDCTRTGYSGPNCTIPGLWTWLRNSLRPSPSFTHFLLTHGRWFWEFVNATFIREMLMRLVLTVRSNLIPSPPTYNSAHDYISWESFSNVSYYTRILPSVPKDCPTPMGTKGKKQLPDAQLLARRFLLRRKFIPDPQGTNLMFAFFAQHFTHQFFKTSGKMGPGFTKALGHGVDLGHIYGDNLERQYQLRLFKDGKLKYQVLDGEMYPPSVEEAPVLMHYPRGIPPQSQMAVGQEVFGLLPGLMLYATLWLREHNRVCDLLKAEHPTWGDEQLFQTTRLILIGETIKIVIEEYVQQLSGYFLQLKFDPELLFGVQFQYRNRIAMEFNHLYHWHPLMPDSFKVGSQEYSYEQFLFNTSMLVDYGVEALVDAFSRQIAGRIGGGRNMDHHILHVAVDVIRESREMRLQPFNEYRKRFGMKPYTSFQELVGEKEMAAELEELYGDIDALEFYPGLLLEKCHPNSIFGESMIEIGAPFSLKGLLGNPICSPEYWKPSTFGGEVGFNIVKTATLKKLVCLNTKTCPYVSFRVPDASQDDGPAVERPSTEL

Take `COc1ccc([C@H]2C(CN3CCN(c4ccc(OC)cc4)CC3)=NO[C@@H]3CCCC[C@H]23)cc1`: the figures for the half-inhibitory concentration (IC50) in assay [1] and in assay [2] were 1.7 µM and 40.4 µM, respectively.

With `COc1ccc(N2CCN(CC3=NOC(C)(C)CC3c3ccccc3)CC2)cc1` (stereo not given), the concentration for half-maximal inhibition (IC50) is 2.6 µM in assay [1] and 50.6 µM in assay [2].

In the case of `COc1ccc(N2CCN(CC3=NO[C@@H]4CCCC[C@@H]4[C@H]3c3ccccc3)CC2)cc1`, the figures for the IC50 in assay [1] and in assay [2] were 1.8 µM and 35.8 µM, respectively.

With `CC1(C)CC(c2ccccc2)C(CN2CCC(c3noc4cc(F)ccc34)CC2)=NO1` (stereo not given), the IC50 in assay [1] was 10.5 µM; in assay [2] it was 39.8 µM.

For the compound `Fc1ccc2c(C3CCN(CC4=NO[C@@H]5CCCC[C@@H]5[C@H]4c4ccccc4)CC3)noc2c1`, the IC50 in assay [1] worked out at 4.7 µM; in assay [2], 42.8 µM.

Take `CC1(C)CC(c2ccc(Cl)cc2)C(CN2CCC(c3noc4cc(F)ccc34)CC2)=NO1` (stereo not given): the IC50 worked out at 4.1 µM in assay [1] and 40.1 µM in assay [2].

With `CC1(C)CC(c2ccccc2)C(CN2CCN(c3cccc(Cl)c3Cl)CC2)=NO1` (stereo not given), the half-inhibitory concentration (IC50) in assay [1] is 6.8 µM; in assay [2], 54.9 µM.

For `c1ccc([C@H]2C(Cn3c4ccccc4c4ccccc43)=NO[C@@H]3CCCC[C@H]23)cc1`, the IC50 in assay [1] stood at 9.9 µM; in assay [2], 59.9 µM.

For `COc1ccc([C@H]2C(Cn3c4ccccc4c4ccccc43)=NO[C@@H]3CCCC[C@H]23)cc1`, the IC50 worked out at 5.9 µM in assay [1] and 50.8 µM in assay [2].

`CC1(C)CC(c2ccc(Cl)cc2)C(Cn2c3ccccc3c3ccccc32)=NO1` (stereo not given): the results for the IC50 in assay [1] and in assay [2] were 3.9 µM and 40.8 µM, respectively.
